# Biological target: T1, collagen I matrix (Bos taurus, UniProt P02453+P02465)
# T1 construct: purchased PureCol (product name as printed)
# Test: Gradient generation and characterization in the collagen I matrix of the culture chamber (fluorescence detection)
# Experimental: Invasive angiogenic sprouting in three dimensions was studied by embedding organs or clusters of cells in a collagen I matrix composed of Ham's F12 medium (Promocell), 6.26 mM NaOH, 20 mM HEPES, 0.117% NaHCO3, 1% Glutamax-I (Gibco) and 1.5 mg/ml collagen I (PureCol). The flow channels were sealed prior to casting of the gel by the insertion of PDMS plugs. These were cut out a little wider than the channels (˜7×5×0.6 mm) to prevent the gel from leaking into the flow channels. The gel volume (20 μl) deposited in the culture chamber was approximately twice the size of the chamber volume to account for shrinkage and to make sure that the when the culture system was assembled the gel would be slightly compressed in order to occupy the entire culture chamber. […] The collagen gel was left to polymerize in a regular cell incubator at 37° C. and 5% CO2 for 2 hours. Organs or cell clusters were deposited into the center of the culture chamber using a Pasteur pipette in the beginning of the polymerization process. The tissue can be carefully positioned with a needle or by tapping the side of the culture chamber. Both organs and cells can be grown in the fluidic culture device in its open configuration with the culture chamber facing upwards for several days by adding cell media to cover the top of the open culture chamber.
# Stock solutions of recombinant VEGFA165 (PeproTech), FGF2 (PeproTech) and VEGFC (R&D systems) were stored at −20° C. until further use. […]
# Flow in the culture system was generated by connecting two syringes (connected to a syringe pump) to the channel inlets. […] No flow was recorded through the culture chamber when the flow rates in the source and sink channels were kept identical.
# The gradient profile was initially characterized by detection of F-VEGFA. […] FIG. 10 illustrates time-lapse series of the central part of the culture chamber (1.7×1.3 mm) as a gradient of F-VEGFA is established; gradient formation in the culture chamber was detected by measuring the fluorescent signal. […] The profiles are recorded at the center of the chamber, indicated by black bar in FIG. 12. […]
# [1] = collagen I matrix, flow 0.5 μl/min
# T1 sequence (P02453 162-1217 limits assumed): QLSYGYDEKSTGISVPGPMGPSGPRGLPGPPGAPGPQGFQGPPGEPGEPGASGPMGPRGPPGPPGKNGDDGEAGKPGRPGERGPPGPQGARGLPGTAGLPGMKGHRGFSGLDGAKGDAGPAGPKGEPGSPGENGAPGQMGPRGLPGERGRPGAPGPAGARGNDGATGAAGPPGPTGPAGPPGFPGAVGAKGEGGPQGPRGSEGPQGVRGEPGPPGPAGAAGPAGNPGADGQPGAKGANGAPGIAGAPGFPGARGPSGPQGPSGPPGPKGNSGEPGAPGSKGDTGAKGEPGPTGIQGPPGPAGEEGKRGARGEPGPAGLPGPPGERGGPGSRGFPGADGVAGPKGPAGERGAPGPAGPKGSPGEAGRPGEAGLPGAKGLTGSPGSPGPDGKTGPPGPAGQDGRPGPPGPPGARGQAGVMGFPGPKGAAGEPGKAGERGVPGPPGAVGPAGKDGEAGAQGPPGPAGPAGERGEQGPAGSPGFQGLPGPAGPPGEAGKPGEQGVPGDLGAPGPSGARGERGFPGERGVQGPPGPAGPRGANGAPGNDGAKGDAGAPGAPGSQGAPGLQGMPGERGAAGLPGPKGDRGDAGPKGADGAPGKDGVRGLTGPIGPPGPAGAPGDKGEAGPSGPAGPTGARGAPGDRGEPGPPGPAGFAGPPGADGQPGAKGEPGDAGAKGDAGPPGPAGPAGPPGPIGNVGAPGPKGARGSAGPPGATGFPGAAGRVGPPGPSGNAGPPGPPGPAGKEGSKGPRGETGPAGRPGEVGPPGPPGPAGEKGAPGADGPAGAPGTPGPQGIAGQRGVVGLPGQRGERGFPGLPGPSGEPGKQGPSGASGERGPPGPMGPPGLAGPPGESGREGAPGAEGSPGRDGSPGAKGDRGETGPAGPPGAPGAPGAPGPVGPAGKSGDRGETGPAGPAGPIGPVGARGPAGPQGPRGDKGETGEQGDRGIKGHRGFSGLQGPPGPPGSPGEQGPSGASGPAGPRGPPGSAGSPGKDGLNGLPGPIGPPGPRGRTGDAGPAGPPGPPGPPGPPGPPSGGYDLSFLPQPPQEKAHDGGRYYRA
# T1 sequence (P02465 80-1117 limits assumed): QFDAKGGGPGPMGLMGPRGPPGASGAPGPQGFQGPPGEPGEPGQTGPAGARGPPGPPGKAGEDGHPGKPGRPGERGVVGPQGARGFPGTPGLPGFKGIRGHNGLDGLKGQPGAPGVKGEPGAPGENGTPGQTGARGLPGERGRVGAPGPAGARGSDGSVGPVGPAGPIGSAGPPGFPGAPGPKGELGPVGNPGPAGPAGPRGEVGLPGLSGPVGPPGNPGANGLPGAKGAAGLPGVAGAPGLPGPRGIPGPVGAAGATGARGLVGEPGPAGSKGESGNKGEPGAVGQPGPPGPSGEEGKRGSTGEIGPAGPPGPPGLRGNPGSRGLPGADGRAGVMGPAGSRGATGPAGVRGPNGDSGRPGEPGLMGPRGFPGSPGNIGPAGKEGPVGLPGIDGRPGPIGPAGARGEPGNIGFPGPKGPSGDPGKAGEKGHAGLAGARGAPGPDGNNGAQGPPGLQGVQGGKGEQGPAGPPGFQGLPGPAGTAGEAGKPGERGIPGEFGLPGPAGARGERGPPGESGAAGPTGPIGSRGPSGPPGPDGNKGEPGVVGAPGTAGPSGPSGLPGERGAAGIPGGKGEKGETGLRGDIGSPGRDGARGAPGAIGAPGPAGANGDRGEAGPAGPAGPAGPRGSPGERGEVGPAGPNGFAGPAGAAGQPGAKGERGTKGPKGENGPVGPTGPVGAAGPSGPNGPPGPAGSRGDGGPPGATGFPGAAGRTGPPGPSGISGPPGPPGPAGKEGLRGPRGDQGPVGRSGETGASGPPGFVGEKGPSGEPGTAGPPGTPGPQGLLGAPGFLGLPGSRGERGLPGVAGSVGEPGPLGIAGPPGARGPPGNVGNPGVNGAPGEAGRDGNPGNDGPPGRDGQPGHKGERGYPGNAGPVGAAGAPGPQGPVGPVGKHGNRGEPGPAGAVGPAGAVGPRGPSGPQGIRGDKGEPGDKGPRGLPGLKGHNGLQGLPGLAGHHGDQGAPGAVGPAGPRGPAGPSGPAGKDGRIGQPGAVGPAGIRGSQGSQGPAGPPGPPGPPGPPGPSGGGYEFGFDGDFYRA
substance,measurement,setting,value
FITC-dextran,affinity for collagen I (accumulation at the edge of the gel),1.5 mg/ml collagen I matrix,little or no affinity for collagen I
same,time after which the gradient was stable,[1],approximately 6 hours
same,time to formation of a linear gradient after onset of flow,[1],≤ 2 h

# Reference: US20110217771A1, “Fluidic Culture Device” (priority 2008, published 2011)
